Assay results: ChEMBL document CHEMBL6121006, “Marine natural product-inspired discovery of novel BRD4 inhibitors with anti-inflammatory activity” (Eur J Med Chem, 2025)
Calls of active or inactive are those of the source. The calls are words filed in the database; no cut-off is given here.

Key:
[1] = molecular target: T1, Bromodomain-containing protein 4 (Homo sapiens, UniProt O60885); assay: Inhibition of human recombinant BRD4 BD1 (42 to 167 residues) extracted from Escherichia coli BL21 (DE3) at 10 uM incubated for 2 hrs by TR-FRET assay relative to control
[2] = molecular target: T1, Bromodomain-containing protein 4; assay: Inhibition of human recombinant BRD4 BD1 (42 to 167 residues) extracted from Escherichia coli BL21 (DE3) incubated for 2 hrs by TR-FRET assay
[3] = molecular target: Bromodomain testis-specific protein (Homo sapiens) (UniProt Q58F21); assay: Inhibition of BRDT BD1 (unknown origin) at 1 uM incubated for 2 hrs by TR-FRET assay relative to control
[4] = molecular target: T2, Bromodomain-containing protein 9 (Homo sapiens) (UniProt Q9H8M2); assay: Inhibition of BRD9 (unknown origin) at 1 uM incubated for 2 hrs by TR-FRET assay relative to control
T2 sequence (whole entry): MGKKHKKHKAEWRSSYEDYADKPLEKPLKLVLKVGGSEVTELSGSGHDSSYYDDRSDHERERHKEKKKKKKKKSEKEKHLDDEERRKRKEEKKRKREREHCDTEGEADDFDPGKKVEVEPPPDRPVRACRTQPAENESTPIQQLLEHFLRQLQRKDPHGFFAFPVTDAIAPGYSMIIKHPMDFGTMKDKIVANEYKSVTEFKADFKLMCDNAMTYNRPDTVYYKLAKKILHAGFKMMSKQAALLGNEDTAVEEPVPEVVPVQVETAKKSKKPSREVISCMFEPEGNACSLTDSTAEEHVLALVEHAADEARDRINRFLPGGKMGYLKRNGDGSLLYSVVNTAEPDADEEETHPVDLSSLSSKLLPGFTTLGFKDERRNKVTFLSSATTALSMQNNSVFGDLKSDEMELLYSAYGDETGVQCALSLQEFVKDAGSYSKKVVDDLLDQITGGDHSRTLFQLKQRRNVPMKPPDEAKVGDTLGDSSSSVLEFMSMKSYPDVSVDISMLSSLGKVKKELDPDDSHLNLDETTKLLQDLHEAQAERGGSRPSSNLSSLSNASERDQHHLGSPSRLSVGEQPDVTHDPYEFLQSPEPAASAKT

[5] = molecular target: CREB-binding protein (Homo sapiens) (UniProt Q92793); assay: Inhibition of CREBBP (unknown origin) at 1 uM incubated for 2 hrs by TR-FRET assay relative to control
[6] = molecular target: Bromodomain-containing protein 2 (Homo sapiens) (UniProt P25440); assay: Inhibition of BRD2 BD2 (unknown origin) at 1 uM incubated for 2 hrs by TR-FRET assay relative to control
THP-1 [7] = assay: Cytotoxicity against human THP-1 cells at 20 uM measured after 24 hrs by CCK8 method; format: functional, cell-based
RAW264.7 [8] = assay: Anti-inflammatory activity in mouse RAW264.7 cells assessed as inhibition of LPS-induced TNF-alpha expression preincubated with compound for 2 hrs followed by LPS stimulation and measured after 6 hrs by RT-qPCR analysis; format: functional, cell-based; conditions: dose 2.5-20 µM, time 8.0 hrs
RAW264.7 [9] = assay: Anti-inflammatory activity in mouse RAW264.7 cells assessed as inhibition of LPS-induced IL-6 level preincubated with compound for 2 hrs followed by LPS stimulation and measured after 22 hrs by ELISA method; format: functional, cell-based; conditions: dose 2.5-20 µM, time 24.0 hrs
THP-1 [10] = assay: Anti-inflammatory activity in human THP-1 cells assessed as inhibition of LPS-induced TNF-alpha level preincubated with compound for 2 hrs followed by LPS stimulation and measured after 22 hrs by ELISA method; format: functional, cell-based; conditions: dose 2.5-20 µM, time 24.0 hrs
Mus musculus [11] = assay: Antiinflammatory activity against C57BL/6 mouse acute inflammation model assessed as inhibition of LPS-induced TNF-alpha level at 50 to 100 mg/kg, po pre-administered for 2 hrs followed by LPS stimulation for 6 hrs by ELISA method; format: functional, organism-based; conditions: dose 50-100 mg/kg, time 8.0 hrs
Mus musculus [12] = assay: Antiinflammatory activity against C57BL/6 mouse acute inflammation model assessed as reduction in LPS induced lung edema at 50 to 100 mg/kg, po pre-administered for 2 hrs followed by LPS stimulation for 6 hrs; format: functional, organism-based; conditions: dose 50-100 mg/kg, time 8.0 hrs
Mus musculus [13] = assay: Antiinflammatory activity against C57BL/6 mouse acute inflammation model assessed as reduction in LPS induced lung pulmonary hemorrhage at 50 to 100 mg/kg, po pre-administered for 2 hrs followed by LPS stimulation for 6 hrs; format: functional, organism-based; conditions: dose 50-100 mg/kg, time 8.0 hrs
Mus musculus [14] = assay: Antiinflammatory activity against LPS-induced C57BL/6 mouse acute inflammation model assessed as improvement of distorted hepatic lobular structure in liver at 50 to 100 mg/kg, po pre-administered for 2 hrs followed by LPS stimulation for 6 hrs; format: functional, organism-based; conditions: dose 50-100 mg/kg, time 8.0 hrs
Mus musculus [15] = assay: Antiinflammatory activity against LPS-induced C57BL/6 mouse acute inflammation model assessed as improvement of hepatic necrosis in liver at 50 to 100 mg/kg, po pre-administered for 2 hrs followed by LPS stimulation for 6 hrs; format: functional, organism-based; conditions: dose 50-100 mg/kg, time 8.0 hrs
Mus musculus [16] = assay: Antiinflammatory activity against LPS-induced C57BL/6 mouse acute inflammation model assessed as improvement of excessive inflammatory cell infiltration in liver at 50 to 100 mg/kg, po pre-administered for 2 hrs followed by LPS stimulation for 6 hrs; format: functional, organism-based; conditions: dose 50-100 mg/kg, time 8.0 hrs
Mus musculus [17] = assay: Antiinflammatory activity against LPS-induced C57BL/6 mouse acute inflammation model assessed as rescue of damaged renal tubule cells in kidney at 50 to 100 mg/kg, po pre-administered for 2 hrs followed by LPS stimulation for 6 hrs; format: functional, organism-based; conditions: dose 50-100 mg/kg, time 8.0 hrs
Mus musculus [18] = assay: Antiinflammatory activity against LPS-induced C57BL/6 mouse acute inflammation model assessed as rescue of damaged glomerular cells in kidney at 50 to 100 mg/kg, po pre-administered for 2 hrs followed by LPS stimulation for 6 hrs; format: functional, organism-based; conditions: dose 50-100 mg/kg, time 8.0 hrs
Mus musculus [19] = assay: Antiinflammatory activity against LPS-induced C57BL/6 mouse acute inflammation model assessed as rescue of increased inflammatory cell infiltration in kidney at 50 to 100 mg/kg, po pre-administered for 2 hrs followed by LPS stimulation for 6 hrs; format: functional, organism-based; conditions: dose 50-100 mg/kg, time 8.0 hrs
Mus musculus [20] = assay: Antiinflammatory activity against LPS-induced C57BL/6 mouse acute inflammation model assessed as reduction of renal injury at 100 mg/kg, po pre-administered for 2 hrs followed by LPS stimulation for 6 hrs; format: functional, organism-based; conditions: time 8.0 hrs
Mus musculus [21] = assay: Antiinflammatory activity against LPS-induced C57BL/6 mouse acute inflammation model assessed as increase in proportion of normal renal tubules at 100 mg/kg, po pre-administered for 2 hrs followed by LPS stimulation for 6 hrs; format: functional, organism-based; conditions: time 8.0 hrs
Mus musculus [22] = assay: Antiinflammatory activity against LPS-induced C57BL/6 mouse acute inflammation model assessed as decrease in number of interstitial vacuoles at 100 mg/kg, po pre-administered for 2 hrs followed by LPS stimulation for 6 hrs; format: functional, organism-based; conditions: time 8.0 hrs
[23] = Toxicity in C57BL/6 mouse effect on heart at 100 mg/kg, po measured after 24 hrs; format: organism-based; conditions: in vivo
[24] = Toxicity in C57BL/6 mouse effect on spleen at 100 mg/kg, po measured after 24 hrs; format: organism-based; conditions: in vivo
[25] = Toxicity in C57BL/6 mouse effect on lung at 100 mg/kg, po measured after 24 hrs; format: organism-based; conditions: in vivo
[26] = Toxicity in C57BL/6 mouse effect on kidney at 100 mg/kg, po measured after 24 hrs; format: organism-based; conditions: in vivo

Chain of CREB-binding protein (Homo sapiens) (Q92793 2-2442 limits assumed): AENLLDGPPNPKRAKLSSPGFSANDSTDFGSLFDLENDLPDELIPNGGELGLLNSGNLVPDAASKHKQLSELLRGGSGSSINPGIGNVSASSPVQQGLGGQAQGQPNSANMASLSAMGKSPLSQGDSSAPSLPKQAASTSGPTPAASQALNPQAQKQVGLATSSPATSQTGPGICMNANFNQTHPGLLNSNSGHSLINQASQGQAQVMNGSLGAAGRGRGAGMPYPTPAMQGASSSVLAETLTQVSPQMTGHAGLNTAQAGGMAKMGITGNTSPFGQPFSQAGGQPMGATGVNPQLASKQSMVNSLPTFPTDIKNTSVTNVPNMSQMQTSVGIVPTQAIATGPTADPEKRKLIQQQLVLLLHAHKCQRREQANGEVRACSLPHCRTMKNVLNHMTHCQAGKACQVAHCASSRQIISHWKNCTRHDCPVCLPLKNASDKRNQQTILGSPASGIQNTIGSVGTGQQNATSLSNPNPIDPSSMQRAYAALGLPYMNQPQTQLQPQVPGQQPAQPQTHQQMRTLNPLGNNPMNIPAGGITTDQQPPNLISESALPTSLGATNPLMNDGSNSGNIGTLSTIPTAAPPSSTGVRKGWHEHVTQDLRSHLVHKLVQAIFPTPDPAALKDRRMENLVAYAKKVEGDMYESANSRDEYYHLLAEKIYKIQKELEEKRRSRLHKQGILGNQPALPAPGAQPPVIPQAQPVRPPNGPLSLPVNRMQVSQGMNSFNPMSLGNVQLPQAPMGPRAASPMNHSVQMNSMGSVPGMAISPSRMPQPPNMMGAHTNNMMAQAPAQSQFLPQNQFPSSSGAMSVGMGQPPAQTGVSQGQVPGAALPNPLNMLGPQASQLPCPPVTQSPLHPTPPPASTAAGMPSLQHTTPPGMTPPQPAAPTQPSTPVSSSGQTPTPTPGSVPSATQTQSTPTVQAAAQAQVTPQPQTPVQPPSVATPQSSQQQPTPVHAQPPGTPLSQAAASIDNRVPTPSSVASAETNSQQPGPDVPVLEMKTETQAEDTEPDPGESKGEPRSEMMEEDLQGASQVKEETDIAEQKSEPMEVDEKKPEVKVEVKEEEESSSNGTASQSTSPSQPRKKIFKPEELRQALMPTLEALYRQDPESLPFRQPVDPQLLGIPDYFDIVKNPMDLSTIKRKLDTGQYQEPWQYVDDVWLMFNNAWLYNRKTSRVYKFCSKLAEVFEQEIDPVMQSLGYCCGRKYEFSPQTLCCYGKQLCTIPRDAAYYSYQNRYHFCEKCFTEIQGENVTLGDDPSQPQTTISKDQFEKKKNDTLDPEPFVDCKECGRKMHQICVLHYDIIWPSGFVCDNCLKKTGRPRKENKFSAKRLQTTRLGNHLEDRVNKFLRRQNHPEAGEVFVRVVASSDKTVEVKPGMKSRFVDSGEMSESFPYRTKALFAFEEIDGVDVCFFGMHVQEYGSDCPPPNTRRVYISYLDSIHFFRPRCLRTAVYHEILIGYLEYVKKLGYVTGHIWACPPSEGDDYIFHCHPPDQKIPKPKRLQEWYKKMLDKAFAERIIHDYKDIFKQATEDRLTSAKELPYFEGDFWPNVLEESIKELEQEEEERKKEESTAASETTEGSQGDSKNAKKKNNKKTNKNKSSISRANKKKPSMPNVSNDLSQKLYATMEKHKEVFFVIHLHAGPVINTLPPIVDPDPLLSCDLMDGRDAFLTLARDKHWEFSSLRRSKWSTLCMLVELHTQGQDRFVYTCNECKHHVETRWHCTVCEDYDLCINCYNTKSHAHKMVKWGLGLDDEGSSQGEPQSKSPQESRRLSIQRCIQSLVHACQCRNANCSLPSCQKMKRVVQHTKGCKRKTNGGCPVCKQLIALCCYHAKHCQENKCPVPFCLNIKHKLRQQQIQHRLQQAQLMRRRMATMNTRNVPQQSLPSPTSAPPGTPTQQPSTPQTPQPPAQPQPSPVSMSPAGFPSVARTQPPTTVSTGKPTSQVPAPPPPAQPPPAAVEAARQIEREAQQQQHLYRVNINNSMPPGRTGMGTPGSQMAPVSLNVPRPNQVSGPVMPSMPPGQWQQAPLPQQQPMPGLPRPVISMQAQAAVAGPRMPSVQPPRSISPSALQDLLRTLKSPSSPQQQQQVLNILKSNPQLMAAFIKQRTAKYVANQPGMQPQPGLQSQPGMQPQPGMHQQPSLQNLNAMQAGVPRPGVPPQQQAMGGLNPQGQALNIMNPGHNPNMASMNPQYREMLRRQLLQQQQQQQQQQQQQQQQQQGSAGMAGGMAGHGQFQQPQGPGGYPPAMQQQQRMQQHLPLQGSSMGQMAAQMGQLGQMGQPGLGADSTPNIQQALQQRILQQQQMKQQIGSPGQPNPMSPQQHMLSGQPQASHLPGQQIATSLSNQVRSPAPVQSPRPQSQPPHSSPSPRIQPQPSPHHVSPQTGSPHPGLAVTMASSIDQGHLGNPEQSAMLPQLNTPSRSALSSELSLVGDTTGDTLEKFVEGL
Chain of Bromodomain-containing protein 2 (Homo sapiens) (P25440 whole entry, looked up): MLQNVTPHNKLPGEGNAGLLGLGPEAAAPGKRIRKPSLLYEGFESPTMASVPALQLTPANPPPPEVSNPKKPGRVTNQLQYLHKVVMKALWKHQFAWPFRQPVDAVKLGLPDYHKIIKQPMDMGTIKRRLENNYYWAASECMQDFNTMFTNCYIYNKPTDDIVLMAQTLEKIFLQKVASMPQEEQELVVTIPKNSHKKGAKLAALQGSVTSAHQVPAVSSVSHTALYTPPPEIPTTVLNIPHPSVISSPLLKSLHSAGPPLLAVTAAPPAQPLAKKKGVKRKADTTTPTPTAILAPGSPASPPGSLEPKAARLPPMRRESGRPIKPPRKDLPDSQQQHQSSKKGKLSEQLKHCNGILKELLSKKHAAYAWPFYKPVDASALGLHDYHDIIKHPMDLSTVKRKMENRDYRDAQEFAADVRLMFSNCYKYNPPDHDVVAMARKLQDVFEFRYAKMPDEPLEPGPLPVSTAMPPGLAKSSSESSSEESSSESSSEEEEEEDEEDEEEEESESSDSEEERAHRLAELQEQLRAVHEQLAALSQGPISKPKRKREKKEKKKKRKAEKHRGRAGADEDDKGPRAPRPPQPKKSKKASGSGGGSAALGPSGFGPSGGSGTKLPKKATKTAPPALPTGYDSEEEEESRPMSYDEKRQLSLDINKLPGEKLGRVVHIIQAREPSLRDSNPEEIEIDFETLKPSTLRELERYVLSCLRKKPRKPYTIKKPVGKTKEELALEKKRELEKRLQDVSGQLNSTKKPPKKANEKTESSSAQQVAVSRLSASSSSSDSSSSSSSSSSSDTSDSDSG

inhibition [1]: 81%
IC50 [2]: 3.81 µM
inhibition [3]: 6%
inhibition [4]: 12%
inhibition [5]: 15%
inhibition [6]: 30%
SMILES: COc1ccc(/C=C/c2nc3cc(OC)cc(OC)c3c(=O)[nH]2)cc1
Activity (THP-1 [7]): inactive
Activity (RAW264.7 [8]): Dose-dependent-effect
Activity (RAW264.7 [9]): Dose-dependent-effect
Activity (THP-1 [10]): Dose-dependent-effect
Activity (Mus musculus [11]): Active
Activity (Mus musculus [12]): Active
Activity (Mus musculus [13]): Active
Activity (Mus musculus [14]): Active
Activity (Mus musculus [15]): Active
Activity (Mus musculus [16]): Active
Activity (Mus musculus [17]): Active
Activity (Mus musculus [18]): Active
Activity (Mus musculus [19]): Active
Activity (Mus musculus [20]): Active
Activity (Mus musculus [21]): Active
Activity (Mus musculus [22]): Active
Activity [23]: Non-toxic
Activity [24]: Non-toxic
Activity [25]: Non-toxic
Activity [26]: Non-toxic
